Patent US8073630B2, “Pharacogenetic method for prediction of the efficacy of methotrexate monotherapy in recent-onset arthritis” (Exagen Diagnostics, Inc., priority 2006, dated 2011)

How the values were obtained:
RA patients = assay: Replication cohort of RA patients on MTX monotherapy (BeSt and UMCN), response at 6 months; type: in vivo, human; conditions: replication group n=38 (n=17 responders); average MTX dosage 19 mg weekly (range 5-25 mg weekly)
Procedure: Thirty-eight patients were recruited to replicate the genetic model. The validation cohort data were collected after development of the predictive model, but the investigators were blinded to either the clinical parameters or the genotyping results for the replication group. Fourteen patients were available from the BeSt study; they were treated with initial MTX monotherapy, but DNA samples were obtained after the clinical pharmacogenetic model was developed. Twenty-four patients were available from the RA cohort of the rheumatology department at the University Medical Center Nijmegen (UMCN), consisting of 553 patients (5, 51). Patients were eligible for the replication cohort if they fulfilled the ACR 1987 criteria for RA, started with MTX monotherapy, had not been treated previously with DMARDs other than antimalarial agents, and had disease duration of less than 2 years. In addition, clinical data comprising the prediction model and DNA samples had to be available. In the UMCN cohort, 352 patients were recorded as having received MTX at any time point. […]
The response at 6 months after starting MTX treatment in the group of RA patients (n=38) in the replication model was 45% (n=17), with an average MTX dosage of 19 mg weekly (range 5-25 mg weekly). […] The calculated simple scores in the replication group of RA patients ranged from 1 to 9. […]

[1] = tested on: patients with recent onset RA; assay: MTX monotherapy efficacy in recent-onset RA patients (BeSt study subcohort), DAS response at 6 months; type: in vivo, human
Text: The 205 patients enrolled in this study comprised a subcohort of the 508 patients who participated in the BeSt study. (5) The BeSt study is a randomized, multicenter, single-blinded, clinical study comparing the clinical efficacy of four different treatment strategies in recent onset RA including sequential monotherapy (n=126 starting with MTX), step up to combination therapy of MTX with sulfasalazine (SSZ, n=121 starting with MTX), initial combination therapy with MTX, SSZ and a high tapered dose of prednisolone (n=133), or initial biologic therapy with infliximab plus MTX (n=128). Inclusion criteria for patients in the study comprise the American College of Rheumatology (ACR) 1987 criteria for RA (23), an age ≧18 years, and a disease duration of <2 years. Patients were also required to have active RA, defined as ≧6 swollen joints (out of 66) and ≧6 tender joints (out of 68) and either an erythrocyte sedimentation rate (ESR) ≧28 mm/hour or a score of ≧20 mm on 100 mm visual analogue scale (VAS) for patient's assessment of global health (0=best, 100=worst). […]
Patients allocated initial monotherapy with MTX with available DNA samples (n=205) were included in the current analysis. […] A research nurse who was blinded to the allocated treatment group assessed the DAS every 3 months. […]

CN(Cc1cnc2nc(N)nc(N)c2n1)c1ccc(C(=O)N[C@@H](CCC(=O)O)C(=O)O)cc1 [MTX, Methotrexate]
response at 6 months after starting MTX treatment (RA patients): 45%
responders (DAS of ≦2.4, good clinical response) ([1]; at 6 months of treatment with MTX, oral MTX 7.5 mg weekly increasing to 15 mg, stepwise to 25 mg weekly, with folic acid 1 mg daily, 186 patients evaluable (n=87 responders)): 47 % of patients
patients who discontinued MTX permanently after experiencing ADEs ([1]; of the 205 patients, within first 6 months): 10 patients
